Test results from US20030148963A1 (priority 2000, published 2003).
Several values for one entry are separate records, joined by “and”; a condition that tells them apart may be missing. Identical values can stand only once. Like-named read-outs stand apart in the source and are kept apart here. Marks after values point to notes of the source that are not given here.

Assays:
[1] = test system: S. aureus-induced arthritis
Experimental: NMRI mice of both sexes, 6-8 weeks old, were obtained from B&K Universal AB (Stockholm, Sweden). They were housed in the animal facility of the Department of Rheumatology, University of Göteborg, under standard conditions of light and temperature and fed standard laboratory chow and water ad libitum.
S. aureus LS-1 strain was originally isolated from a swollen joint of a spontaneously arthritic NZB/W mouse. The bacteria were cultured for […] on blood agar plates, replated for another 24 h, washed and kept frozen at −20° C. in PBS containing 5% bovine serum albumin ([…]) and 10% dimethyl sulfoxide ([…]) until used. Before use, the bacterial solution was thawed and washed in PBS. Viable count was done to check the number of bacteria in each bacterial solution mice were given i.v. injections (in the tail vein) of 0.2 ml of bacterial solution
All the mice were monitored individually. Their limbs were inspected visually every day during the experiment. Arthritis was defined as visible joint erytbema and/or swelling of at least one joint. To evaluate the intensity of arthritis, a clinical scoring system of 0 to 3 points for each limb was used (1 point, mild swelling and/or erytema; 2 points, moderate swelling and erythema; 3 points, marked swelling and erytema). The arthritic index was constructed by adding the scores from all four limbs for each animal. Previous study has shown that there is a good correlation between the clinical and histopathological appearance of arthritis. The overall condition of each mouse was evaluated by assessing its weight, general appearance, alertness, and skin abnormalities.

TNF = assay type: cell-based, NMRI mice; conditions: 24 h supernatant, mean ± SEM
Experimental: Spleens were obtained from healthy NMRI mice. […] The cells (2×10^61/Ml) were cultured in Iscove's complete medium (10% FCS, 5×10^−5 M 2-mercaptoethanol, 2 mM L-glutamine, and 50 μg/ml gentamicin). […] To determine the proliferative response, the cells were cultured in 96-well plates (Nunc) for 3 days. The cultures were pulsed with 1 μCi of (^3H)TdR (Amersham, Bucks, UK) 12 h before harvest and calculation of TdR uptake in a beta counter. The levels of TNF.- were determined using sandwich enzyme-linked immunosorbent assays (ELISA) kit from R&D Systems Minneapolis, Minn.).

spleen mononuclear cells = assay type: cell-based, NMRI mice; conditions: spleen cells from naive mice, etoposide 1, 10, 100 μM; FIG. 2
IL-6 = assay type: cell-based, NMRI mice; conditions: spleen cells from non-infected in vivo etoposide-treated mice; mean ± SEM, four mice
[2] = test system: peripheral blood leukocytes; test: Hematological analyses during S. aureus infection; assay type: in vivo, NMRI mice
Experimental: Hematological Analyses Mice were bled from the tail into heparinized tubes on days −3, −1, 3, and 6-7 after bacterial inoculation. The leukocytes were counted in a hemacytometer (Toa Medical Electronics, Kobe, Japan). Fifty microliters of the heparinized blood was analysed in a FACScan cytometer (Becton Dickinson, San Jose, Calif.) to determine the percentages of lymphocytes, granulocytes, and monocytes, respectively. The absolute numbers of different leukocyte subsets were then calculated from the total leukocyte counts.

[3] = test system: collagen induced arthritis (CIA); test: Collagen induced arthritis, clinical evaluation; assay type: in vivo, B10.QxDBA/1 female mice
Experimental: B10.QxDBA/1 female mice were used in all experiments. They were aged from 11-16 weeks. In all experiments the mice were age-matched. The mice were kept in the animal facility at the University of Göteborg, under standard conditions of light and temperature and fed standard laboratory chow and water ad libitum.
Rat type II collagen (CII) from a chondrosarcoma was prepared by pepsin digestion and purification as described previously (9). The preparation of CII was dissolved at a concentration of 2 mg/ml in 0.1M acetic acid and stored at 4° C. Arthritis was induced by intradermal injection at the base of the tail with 50 μl of 100 μg CII emulsified with an equal volume of complete Freuid/s adjuvant (CFA; containing Mycobacterium butyricum, Difco, Detroit, Mich.). Mice were boosted with the same volume and concentrations of CII emulsified in incomplete Freund's adjuvant (IFA; Difco) 21 days after the first immunization.
Mice were primed and booster-immunized with CII. They were divided into three groups. […] The third group of mice were controls (n—17), receiving treatment with PBS. Prior to the start of the experiment, six mice in each group were bled for hematological analyses.
At regular time points the mice were examined concerning development of arthritis. Arthritis was defined as visible joint erythema and/or swelling of at least one joint. To evaluate the intensity of arthritis, a clinical scoring system of 0 to 3 points for each limb was used (1 point, mild swelling and/or erythema; 2 points, moderate swelling and erythema; 3 points, marked swelling and erythema). The arthritic index was constructed by adding the scores from all four limbs for each animal (11).

immunoglobulins = test: Serum total immunoglobulins (single radial immunodiffusion); assay type: in vivo, B10.QxDBA/1 female mice; conditions: serum at end of experiment, mean ± SEM
Experimental: Serum levels of immunoglobulins were measured by the single radial immunodiffusion technique (12). Antiserum was purchased from Dako (Dako A/S, Denmark) and mouse immunoglobulin standards were obtained from Sigma (Sigma Chemical Co., St. Louis, Mo.).

COc1cc([C@@H]2c3cc4c(cc3[C@@H](O[C@@H]3O[C@@H]5CO[C@@H](C)O[C@H]5[C@H](O)[C@H]3O)[C@H]3COC(=O)[C@H]23)OCO4)cc(OC)c1O [Etoposide]
Mortality ([1]; 1-2×10^7 CFU S. aureus, starting four days after inoculation, FIG. 1B): higher mortality than the controls
Weight loss ([1]; S. aureus infected mice vs controls, data not shown): more prominent
Frequency of clinical signs of arthritis ([1]; six days after inoculation, 1-2×10^7 CFU S. aureus, controls 70%): 35%
Mice died ([1]; suboptimal dose of bacteria 1×10^6 CFU, 8 days after inoculation, controls 1 out of 10): 6 out of 10
TNF, ConA stimulated (TNF; etoposide 1 μM, four mice): 167 ± 29 pg/mL
TNF, TSST-1 stimulated (TNF; etoposide 1 μM, four mice): 64 ± 20 pg/mL
TNF, ConA stimulated (TNF; etoposide 10 μM): 66 ± 19^b pg/ml
TNF, TSST-1 stimulated (TNF; etoposide 10 μM): 38 ± 8^b pg/ml
TNF, ConA stimulated (TNF; etoposide 100 μM): 10 ± 1^b pg/ml
TNF, TSST-1 stimulated (TNF; etoposide 100 μM): 16 ± 3^b pg/ml
Proliferative responses to Con A and TSST-1 (spleen mononuclear cells): significantly decreased upon increasing concentrations
IL-6, ConA stimulated (IL-6): 455 ± 85^b pg/ml
IL-6, TSST-1 stimulated (IL-6): 255 ± 66b pg/ml
Numbers of lymphocytes ([2]; day prior to bacterial inoculation): 5.6±0.4 ×10^6/ml
Numbers of granulocytes ([2]; day −1): 1.3±0.2 ×10^6/ml
Levels of circulating monocytes ([2]; etoposide from three days prior to S. aureus inoculation, FIG. 4): significantly decreased
Numbers of lymphocytes ([2]; seven days after infection): 0.8±0.2 ×10^6/ml
Numbers of granulocytes ([2]; seven days after the inoculation): 1.6±0.4 ×10^6/ml
Arthritic score of diseased mice ([3]; Etoposide pretreated, Day 46): 0
Arthritic score of diseased mice ([3]; Etoposide pretreated, Day 53): 0
Arthritic score of diseased mice ([3]; Etoposide pretreated, Day 61): 0
Arthritic score of diseased mice ([3]; Etoposide treated (from day 40), Day 46, mean ± SEM): 2.4 ± 0.2 (n = 5)
Arthritic score of diseased mice ([3]; Etoposide treated (from day 40), Day 53, mean ± SEM): 5.4 ± 1.3 (n = 5)
Arthritic score of diseased mice ([3]; Etoposide treated (from day 40), Day 61, mean ± SEM): 5.6 ± 1.3 (n = 5)
Mice with clinical signs of arthritis ([3]; Etoposide-pretreated: 12.5 mg/kg from two days prior to CII immunization, then 4 days weekly, almost nine weeks): none of 19
Mice exhibiting arthritis at the end of the experiment ([3]; Etoposide-treated: 12.5 mg/kg 4 days per week from 40 days after immunization, 5 of 17, controls 53%): 29%
Changes in weight ([3]; between or within the groups (pretreated, treated, controls)): No significant changes in weight
Reduction of frequency of disease ([3]; mice treated with etoposide at the onset of clinical arthritis): 50%
Total immunoglobulin levels (immunoglobulins; Etoposide-pretreated): 9.2±0.5 mg/ml and 9.2 ± 0.5a mg/ml
Total immunoglobulin levels (immunoglobulins; Etoposide-treated (from day 40)): 8.5±0.7 mg/ml and 8.5 ± 0.8^a mg/ml
